This is an account of results in patent publication US8318725B2, “Aryl indolyl sulfonamide compounds and their use as 5-HT6 ligands” (Suven Life Sciences Limited, priority 2008, dated 2012).

SMILES strings stand for the structures.

One data set concerns the target T1, Human 5-HT6 receptor (Homo sapiens, UniProt P50406).
T1 construct: expressed in transfected cells; host or cells: HEK293
The experiment in a line: Binding assay for human 5-HT6 receptor ([3H] LSD radioligand). Conditions: [3H] LSD 1.5 nM, human recombinant receptor in HEK293 cells; for inhibition at 0.1 µM: 100 nM test compound, read-out: % Inhibition of specific binding at 100 nM. Here is the method:
Binding Assay for Human 5-HT6 Receptor
Compounds can be tested according to the following the procedures. Materials and Methods:
Receptor source: Human recombinant expressed in HEK293 cells
Radioligand: [^3H] LSD (60-80 Ci/mmol)
Final ligand concentration—[1.5 nM]
Non-specific determinant: Methiothepin mesylate—[0.1 μM]
Reference compound: Methiothepin mesylate
Positive control: Methiothepin mesylate
Reactions were carried out in […] TRIS-HCl (pH 7.4) containing 10 μM MgCl2, 0.5 mM EDTA for 60 minutes at 37° C. The reaction was terminated by rapid vacuum filtration onto glass fiber filters. Radioactivity trapped onto the filters was determined and compared to control values in order to ascertain any interactions of test compound(s) with the cloned serotonin 5-HT6binding site.
Literature Reference: Monsma F. J. Jr., et al., Molecular Cloning and Expression of Novel Serotonin Receptor with High Affinity for Tricyclic Psychotropic Drugs. Mol. Pharmacol. (43): 320-327 (1993).

For a further data set, the system named is Male Wister rats. The experiment in a line: Object recognition task model (NORT). Type of data set: in vivo. Here is the method: Object Recognition Task Model
The cognition-enhancing properties of compounds of this invention were estimated using a model of animal cognition: the object recognition task model.
Male Wister rats (230-280 grams) obtained from N. I. N. (National Institute of Nutrition, Hyderabad, India) were used as experimental animals. Four animals were housed in each cage. Animals were kept on 20% food deprivation before one day and given water ad libitum throughout the experiment and-maintained on a 12 hours light/dark cycle. Also the rats were habituated to individual arenas for 1 hour in the absence of any objects.
One group of 12 rats received vehicle (1 mL/Kg) orally and another set of animals received compound of the formula (I) either orally or i.p., before one hour of the familiar (T1) and choice trial (T2).
The experiment was carried out in a 50×50×50 cm open field made up of acrylic. In the familiarilation phase, (T1), the rats were placed individually in the open field for 3 minutes, in which two identical objects (plastic bottles, 12.5 cm height×5.5 cm diameter) covered in yellow masking tape alone (a1 and a2) were positioned in two adjacent corners, 10 cm. from the walls. After 24 hours of the (T1) trial for long-term memory test, the same rats were placed in the same arena as they were, placed in T1 trial. Choice phase (T2) rats were allowed to explore the open field for 3 minutes in presence of one familiar object (a3) and one novel object (b) (Amber color glass'bottle, 12 cm high and 5 cm in diameter). Familiar objects presented similar textures, colors and sizes. During the T1 and T2 trial, explorations of each object (defined as sniffing, licking, chewing or having moving vibrissae whilst directing the nose towards the object at a distance of less than 1 cm) were recorded separately by stopwatch. Sitting on an object was not regarded as exploratory activity, however, it was rarely observed. T1 is the total time spent exploring the familiar objects (a1+a2). T2 is the total time spent exploring the familiar object and novel object (a3+b).
The object recognition test was performed as described by Ennaceur, A., Delacour, J., 1988, A new one-trial test for neurobiological studies of memory in rats—Behavioral data, Behay. Brain Res., 31, 47-59.
Some representative compounds have shown positive effects indicating the increased novel object recognition viz; increased exploration time with novel object and higher discrimination index.

The next data set concerns rats. The data set is described as follows: Water maze, scopolamine induced reversal. Type of data set: in vivo. Here is the method: The water maze apparatus consisted of a circular pool (1.8 m diameter, 0.6 m high) constructed in black Perspex (TSE systems, Germany) filled with water (24±2° C.) and positioned underneath a wide-angled video camera to track animal. The 10 cm^2 perspex platform, lying 1 cm below the water surface, was placed in the centre of one of the four imaginary quadrants, which remained constant for all rats. The black Perspex used in the construction of the maze and platform offered no intramaze cues to guide escape behavior. By contrast, the training room offered several strong extramaze visual cues to aid the formation of the spatial map necessary for escape, learning. An automated tracking system, [Videomot 2 (5.51), TSE systems, Germany] was employed. This program analyzes video images acquired via a digital camera and an image acquisition board that determined path length, swim speed and the number of dutation of swim time spent in each quadrant of the water maze.

T1 sequence (P50406 whole entry): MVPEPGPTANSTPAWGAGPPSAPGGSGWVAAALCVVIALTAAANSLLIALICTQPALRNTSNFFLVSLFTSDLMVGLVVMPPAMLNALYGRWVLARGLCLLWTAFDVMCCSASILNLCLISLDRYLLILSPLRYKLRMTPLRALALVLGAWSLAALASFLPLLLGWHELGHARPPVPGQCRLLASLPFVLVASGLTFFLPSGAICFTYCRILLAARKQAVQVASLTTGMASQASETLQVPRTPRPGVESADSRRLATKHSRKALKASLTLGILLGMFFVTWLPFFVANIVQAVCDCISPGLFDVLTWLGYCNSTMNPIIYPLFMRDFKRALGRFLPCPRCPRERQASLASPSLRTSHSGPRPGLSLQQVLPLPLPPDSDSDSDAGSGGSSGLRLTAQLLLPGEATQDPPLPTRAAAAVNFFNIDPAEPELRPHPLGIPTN

The term inhibition denotes the share of the control response that was lost under treatment. In general, melting point refers to the temperature of the solid-liquid transition. `CN1CCN(Cc2cc(S(=O)(=O)n3ccc4c(Cl)cccc43)ccc2Cl)CC1.Cl.Cl` [Example 20, 1-[4-Chloro-3-(4-methylpiperazin-1-ylmethyl)benzenesulfonyl]-4-chloro-1H-indole dihydrochloride] had a melting point of 242.7 to 244.3 °C. On Human 5-HT6 receptor, the inhibition at 0.1 µM worked out at 85.2%.
The corresponding values for `CCN1CCN(Cc2cc(S(=O)(=O)n3ccc4cc(OC)ccc43)ccc2Cl)CC1.Cl.Cl` [Example 18, 1-[4-Chloro-3-(4-ethylpiperazin-1-ylmethyl)benzenesulfonyl]-5-methoxy-1H-indole dihydrochloride] are 209.5 to 211 °C and 55.7%.
A word on the Ki: it is the dissociation constant of the complex between target and ligand, obtained from inhibition or displacement. As for `CN1CCN(Cc2cccc(S(=O)(=O)n3ccc4ccccc43)c2)CC1` [Example 8, 1-[3-(4-Methylpiperazin-1-ylmethyl)benzenesulfonyl]-1H-indole], on Human 5-HT6 receptor, the inhibition constant Ki is 1.91 nM. Also, the “NORT Discriminative Index (DI), treatment” value in the data set with Male Wister rats (10 mg/kg, p.o., vehicle value in brackets) was 0.58 (0.45). In addition, the “NORT Inference” value with Male Wister rats (at the dose tested (10 or 30 mg/kg, p.o.)) is recorded as “Active”. Also, the “Scopolamine Induced Reversal” value with rats is “≧30 mg/kg, p.o”.
`CN1CCN(Cc2cc(S(=O)(=O)n3ccc4ccccc43)ccc2Br)CC1.Cl.Cl` [Example 21, 1-[4-Bromo-3-(4-methylpiperazin-1-ylmethyl)benzenesulfonyl]-1H-indole dihydrochloride] gave a melting point of 214.1 to 216 °C. Moreover, the inhibition at 0.1 µM at Human 5-HT6 receptor was 88.8%.
With `COc1ccc2c(ccn2S(=O)(=O)c2ccc(Cl)c(CN3CCN(C)CC3)c2)c1.Cl.Cl` [Example 16, 1-[4-Chloro-3-(4-methylpiperazin-1-ylmethyl)benzenesulfonyl]-5-methoxy-1H-indole dihydrochloride], the melting point was in the range of 208.8 to 210.2 °C. For the same molecule, the inhibition at 0.1 µM at Human 5-HT6 receptor is 42%.
Molecule `CCN1CCN(Cc2cc(S(=O)(=O)n3ccc4cc(F)ccc43)ccc2Cl)CC1.Cl.Cl` [Example 25, 1-[4-Chloro-3-(4-ethylpiperazin-1-ylmethyl)benzenesulfonyl]-5-fluoro-1H-indole dihydrochloride] displayed a melting point of 204.1 to 205.5 °C. The inhibition at 0.1 µM on Human 5-HT6 receptor came out at 64.8%.
Taken in the same sequence, the figures for `CCN1CCN(Cc2cc(S(=O)(=O)n3cc(C)c4cc(OC)ccc43)ccc2Cl)CC1.Cl.Cl` [Example 30, 1-[4-Chloro-3-(4-ethylpiperazin-1-ylmethyl)benzenesulfonyl]-5-methoxy-3-methyl-1H-indole dihydrochloride] were 217.5 to 220.8 °C and 68%.
`CCN1CCN(Cc2cc(S(=O)(=O)n3ccc4cc(F)ccc43)ccc2C)CC1.Cl.Cl` [Example 44, 1-[4-Methyl-3-(4-ethylpiperazin-1-ylmethyl)benzenesulfonyl]-5-fluoro-1H-indole dihydrochloride] came in with a melting point of 203.4 to 206.2 °C. For the same molecule, the inhibition at 0.1 µM at Human 5-HT6 receptor is 78.5%.
On to `CCN1CCN(Cc2cc(S(=O)(=O)n3ccc4cc(Br)ccc43)ccc2Cl)CC1.Cl.Cl` [Example 29, 1-[4-Chloro-3-(4-ethylpiperazin-1-ylmethyl)benzenesulfonyl]-5-bromo-1H-indole dihydrochloride], for which the melting point fell in the range of 208.6 to 212.8 °C. Also, the inhibition at 0.1 µM at Human 5-HT6 receptor is 71.8%.
`CN1CCN(Cc2cc(S(=O)(=O)n3ccc4cc(F)ccc43)ccc2Cl)CC1.Cl.Cl` [Example 14, 1-[4-Chloro-3-(4-methylpiperazin-1-ylmethyl)benzenesulfonyl]-5-fluoro-1H-indole dihydrochloride] came in with a melting point of 220.2 to 221.3 °C. Moreover, at Human 5-HT6 receptor, the inhibition at 0.1 µM amounted to 73%.
The corresponding values for `CCN1CCN(Cc2cc(S(=O)(=O)n3ccc4c(Cl)cccc43)ccc2Cl)CC1.Cl.Cl` [Example 19, 1-[4-Chloro-3-(4-ethylpiperazin-1-ylmethyl)benzenesulfonyl]-4-chloro-1H-indole dihydrochloride] are 205.9 to 207.2 °C and 82%.
On to `COc1ccc2c(ccn2S(=O)(=O)c2ccc(C)c(CN3CCN(C)CC3)c2)c1.Cl.Cl` [Example 24, 1-[4-methyl-3-(4-methylpiperazin-1-ylmethyl)benzenesulfonyl]-5-methoxy-1H-indole dihydrochloride], for which the melting point lay in the range of 198.1 to 199.3 °C. For the same molecule, the inhibition at 0.1 µM on Human 5-HT6 receptor worked out at 62.2%.
As to `Cc1cn(S(=O)(=O)c2ccc(Br)c(CN3CCN(C)CC3)c2)c2ccccc12.Cl.Cl` [Example 38, 1-[4-Bromo-3-(4-methylpiperazin-1-ylmethyl)benzenesulfonyl]-3-methyl-1H-indole dihydrochloride], the melting point was 210.5 to 213 °C. For the same molecule, the inhibitory constant (Ki) on Human 5-HT6 receptor was 9.11 nM.
In turn, `CCN1CCN(Cc2cc(S(=O)(=O)n3ccc4cc(OC)ccc43)ccc2Br)CC1` [Example 3, 1-[4-Bromo-3-(4-ethylpiperazin-1-ylmethyl)benzenesulfonyl]-5-methoxy-1H-indole] returned a melting point of 196.1 to 198.6 °C. On Human 5-HT6 receptor, the inhibition at 0.1 µM came out at 50.5%.
In turn, `CCN1CCN(Cc2cc(S(=O)(=O)n3ccc4cc(F)ccc43)ccc2Br)CC1` [Example 4, 1-[4-Bromo-3-(4-ethylpiperazin-1-ylmethyl)benzenesulfonyl]-5-fluoro-1H-indole] displayed a melting point of 92.2 to 93.9 °C. The inhibition at 0.1 µM at Human 5-HT6 receptor was 62.5%.
Regarding `CCN1CCN(Cc2cc(S(=O)(=O)n3ccc4cc(Br)ccc43)ccc2Br)CC1.Cl.Cl` [Example 37, 1-[4-Bromo-3-(4-ethylpiperazin-1-ylmethyl)benzenesulfonyl]-5-bromo-1H-indole dihydrochloride], the melting point was 205.1 to 207.1 °C. Also, the inhibition at 0.1 µM on Human 5-HT6 receptor was determined as 55.9%.
Consider `CN1CCN(Cc2cc(S(=O)(=O)n3ccc4ccccc43)ccc2Cl)CC1.Cl.Cl` [Example 13, 1-[4-Chloro-3-(4-methylpiperazin-1-ylmethyl)benzenesulfonyl]-1H-indole dihydrochloride], for which the melting point was in the range of 210.6 to 213.9 °C. For the same molecule, the inhibition at 0.1 µM at Human 5-HT6 receptor worked out at 83.3%.
The molecule `CCN1CCN(Cc2cc(S(=O)(=O)n3cc(C)c4ccccc43)ccc2Br)CC1.Cl.Cl` [Example 39, 1-[4-Bromo-3-(4-ethylpiperazin-1-ylmethyl)benzenesulfonyl]-3-methyl-1H-indole dihydrochloride] returned a melting point of 204.1 to 206.5 °C. Also, the inhibition at 0.1 µM on Human 5-HT6 receptor was determined as 91.5%.
For the molecule `CCN1CCN(Cc2cc(S(=O)(=O)n3ccc4ccccc43)ccc2Cl)CC1.Cl.Cl` [Example 15, 1-[4-Chloro-3-(4-ethylpiperazin-1-ylmethyl)benzenesulfonyl]-1H-indole dihydrochloride], the melting point fell in the range of 196 to 197.1 °C. At Human 5-HT6 receptor, the Ki was determined as 18.4 nM.
With `Cc1ccc(S(=O)(=O)n2ccc3cc(F)ccc32)cc1CN1CCN(C)CC1.Cl.Cl` [Example 43, 1-[4-Methyl-3-(4-methylpiperazin-1-ylmethyl)benzenesulfonyl]-5-fluoro-1H-indole dihydrochloride], the melting point lay in the range of 220.3 to 223.4 °C. In addition, the inhibition at 0.1 µM on Human 5-HT6 receptor worked out at 86.2%.
